# Laboratory results from US20070225255A1, “Use of Mitochondrially Targeted Antioxidant in the Treatment of Liver Diseases and Epithelial Cancers” (priority 2004, published 2007).
# Tests used:
# [1] = fed to mice on a long term basis; cited from earlier work
# DDC intoxicated mice = test: Serum parameters of liver damage in DDC intoxicated mice; assay type: in vivo, mouse; conditions: DDC 3 days, simultaneous MitoQ 3, 6 and 12 mg/kg
# Method: In serum from various animal groups the activity of serum liver enzymes indicating liver damage, namely bilirubin, alanine aminotransferase (ALT/GPT; in diagram represented by white bars), aspartate aminotransferase (ASAT/GOT in diagram represented by black bars) are determined according to standard protocols in clinical diagnostics by employing commercially available kits (No: 11552414; 11876805216; 11876848216 all purchased by Roche AG, Switzerland) on a Hitachi/Roche 917 Analyser.
# In serum from various tested animal groups following parameters indicating liver damage, namely bilirubin, alanine aminotransferase (ALT/GPT), aspartate aminotransferase (ASAT/GOT) and glutamate dehydrogenase (GLDH) are determined according to standard protocols in clinical diagnostics employing commercially available kits (No: 11552414; 11876805216; 11876848216; 11929992 all purchased by Roche AG, Switzerland) on a Hitachi/Roche 917 Analyser.
# [2] = test system: human epithelial cell cancer xenografts; test: Nude mice tumor xenografts; assay type: in vivo, mouse
# Method: Tumor cell lines or primary tumors that are xenografted subcutaneously according to standard methods (Li K. et al., 2003, Cancer Res., 63(13): 3593-3597) include colon adenocarcinomas, invasive ductal carcinomas of the breast, small and non-small cell lung carcinoma, prostate tumors, pancreatic tumors and stomach tumors.
# Tumor-derived cell lines (grown in DMEM/10% FBS) are harvested in log-phase growth, washed twice with PBS, resuspended in 1 ml PBS (2.5×10^7 cells/ml), and injected subcutaneously into the right flank of a nude mouse (Hsd: athymic nu/nu, Harlan Winkelmann; aged between 5 and 6 weeks) at 5×10^6 cells/mouse (0.2 ml). Tumor growth is monitored every other day for the indicated periods (depending on the cell type). Tumor size is determined by the product of two perpendicular diameters and the height above the skin surface.
substance,measurement,setting,value
MitoQ,"concentrations within the brain, heart, liver, and muscle",[1],potentially therapeutically effective concentrations
same,safety of feeding,[1],fed safely
same,alanine aminotransferase (ALT/GPT) serum activity,DDC intoxicated mice,most prominent reduction
same,aspartate aminotransferase (AST/GOT) serum activity,DDC intoxicated mice,reduction of enzymatic activity
same,bilirubin in serum,DDC intoxicated mice; data not shown,remains without any changes
same,growth of tumors,[2],reduced growth of tumors
same,necrosis of the tumors,[2],increased necrosis of the tumors
same,vascularization of the tumor xenografts,[2],decreased vascularization
